The record followed here is patent US9828344B2, “Inhibitors of the notch signaling pathway and secretion for use in medicine” (Leibniz-Institut für Altersforschung Fritz-Lipmann-Institut …, priority 2012, dated 2017).

The subject of series [1] is NotchΔE-EGFP. The series can be described thus: Fluorescence microscopy of reporter localization in HeLa NotchΔE-EGFP cells. The following applies: for localization of NotchΔE-EGFP/NICD-EGFP: 10 μM compound, 24 h; for toxicity in cells: inferred from reversibility after wash-out. Format: cell-based. The method, then:
FIG. 10: Phenotypes of Notch inhibitors are fully reversible. HeLa NotchΔE-EGFP cells plated in LabTek coverglass were incubated for 18 h with 10 iM of indicated compounds, washed and incubated for indicated times in cell culture medium. Cells were imaged by live-microscopy. […] Scalebar, 10 im.
For a detailed analysis of subcelluar distribution of NotchΔE/NICD the resolution of the HCS images was not sufficient. Therefore, the reporter cell line was plated on coverslips and incubated with 10 μM of individual compounds from the final hit list. After 24 h the localization of NotchΔE-EGFP/NICD-EGFP was determined by fluorescence microscopy. […] (FIG. 8).
Immunofluorescence stainings were made using standard procedures^55. Imaging was performed on a Zeiss Axiovert200 or an Axio Imager, using 63× 1.4NA objectives and Zeiss Axiovision software. For live-imaging cells were plated on Lab-Tek chambered coverglass (Thermo-Fisher). Images were assembled and processed using Adobe Photoshop. For displaying weakly stained ER-tubules/sheets non-linear changes in gamma-settings were used.

For series [2], the system named is NotchΔE-EGFP. The series can be described thus: Western blot of NotchΔE-EGFP processing in HeLa NotchΔE-EGFP lysates. The class given is cell-based. To be noted: 10 μM, 18 h. The method, then:
FIG. 2: Selected compounds from final hit list show distinct phenotypes. Hela NotchΔE-EGFP cells were incubated with compounds (10 μM) for 18 h, fixed and analyzed by fluorescence microscopy (a) or lysed, separated by SDS-PAGE, blotted and probed with antibodies against GFP and NICD (b). Tubulin served as loading control. c) Quantitation of NotchΔE-EGFP accumulation and NICD production from 3-4 experiments as shown in (b). […] Arrows, plasma membrane; scalebar, 10 μm.
Next, lysates of HeLa NotchΔE-EGFP cells treated with compounds were analyzed for processing of NotchΔE-EGFP by Western blot using antibodies specific for EGFP and NICD (FIG. 2b, c). The GFP antibody detected both the uncleaved reporter NotchΔE-EGFP and the γ-secretase product NICD-EGFP, whereas the NICD-specific antibody specifically detected cleaved NICD-EGFP. […] The observed effects were not cell type specific, as they were also apparent in U2OS cells stably expressing NotchΔE-EGFP (FIG. 9).
On the technique in general: Immunoblotting shows a protein as a band on a membrane.

Series [3] deals with COPII vesicles. In words: In vitro COPII budding assay with permeabilized cells. The following applies: for budding of COPII vesicles after pretreatment of cells: cells pretreated with FLI-06 for 4 hours. The class given is biochemical.
Series [4] concerns microtubuli or actin. The series can be described thus: Microtubule and actin integrity in HeLa cells. The class given is cell-based. The following applies: 4 h.
Series [5] relates to Klotho. The series can be described thus: Klotho trafficking/processing in HEK293 cells stably expressing Klotho. The following applies: 10 μM, 16 h. The class given is cell-based. The method, then:
FIG. 3: Effect of compounds on NotchΔE-EGFP, APP and Klotho trafficking and processing. a) HEK293 stably expressing APPswe or Klotho (KI) were incubated with DAPT or compounds (10 μM) for 16 h. Media were collected, cells lysed and both assayed by Western blotting using indicated antibodies. m, mature; im, immature; s, shedded ectodomain; CTF, C-terminal fragment. b) Membranes from HeLa-NotchΔE-EGFP and APPswe cells were isolated and subjected to a γ-secretase in vitro assay in the presence of DAPT or compounds as indicated. NICD and AICD were detected by Western Blotting using antibodies against the C-terminus of APP (top) or antibodies specific for NICD (bottom). c) Quantitation from 5 independent experiments.
To test whether FLI-06 affected other membrane proteins, Klotho, a type I protein processed like APP and Notch^20, was analyzed. […] To analyze γ-secretase activity, in vitro assays using isolated membranes were performed (FIG. 3b, c). Production of NICD-EGFP and AICD (APP intracellular domain) were assayed. Both were produced in vitro at 37° C. but not at 4° C., and their production was inhibited by DAPT.
APP, APPs, APPCTF and Aβ detection was as described before^54 using antibodies 22C11 for APP and APPs, 6687 for APPCTF and 3552 and 2D8 for Aβ. Klotho was detected as described in Bloch et al.^20. Chemoluminescence was quantified on a LAS-4000 (Fuji) with MultiGauge software.

The subject of series [6] is YFP-GPI. The series can be described thus: Surface transport of YFP-GPI in HeLa cells. The class given is cell-based. The following applies: 18 h; 1 ig/ml BFA or 10 iM FLI-06.
The test system of series [7] is BIP and ATF6. The following applies: human, 24 h.
Series [8] deals with endocytosis. The series can be described thus: Transferrin uptake assay. The class given is cell-based. The method, then: FIG. 13: FLI-06 causes dispersal of early Golgi and TGN, but no tubulation of endosomes. Hela cells were incubated with DMSO or 10 iM FLI-06 or 1 ig/ml BFA for 18 h, fixed, stained with antibodies as indicated and imaged by fluorescence microscopy. Endosomes were visualized by adding Alexa555-labelled transferrin on ice and chasing for 15 min at 37° C. in the presence of indicated compounds. Arrows indicated tubulating endosomes, scalebar 10 im.
For the transferrin uptake assay cells were starved in serum free medium for 1 h at 37° C. Cells were then transferred on ice and medium was exchanged to serum free medium supplemented with 25 μg/ml AlexaFluor555-Transferrin conjugate (Molecular Probes) and test compounds. After 15 min on ice cells were incubated with pre-warmed serum-supplemented medium containing test compounds and incubated at 37° C.

Peptide text beside a SMILES is read from it. * marks the point of attachment. Cbz = O=C(OCc1ccccc1)*; OtBu = CC(C)(C)O*

In the case of `Cc1ccc(NC(=O)C(NS(=O)(=O)c2cccc3nsnc23)C(C)C)nc1` (stereo not drawn) [FLI-15], in series [1], the “localization of NotchΔE-EGFP/NICD-EGFP” value is “accumulation of the reporter at the PM and in perinuclear Golgi-like structures”; the toxicity in cells entry was “not acutely toxic in cells”. Also, in series [2], the NICD-EGFP production entry is on record as “decreased NICD-EGFP production” and the “NotchΔE-EGFP level (GFP antibody)” value is reported as “accumulation of NotchΔE-EGFP”.
Consider `CC(C)CC(NC(=O)C(Cc1ccccc1)NC(=O)C1CCCN1C(=O)OCc1ccccc1)C(=O)OC(C)(C)C` (stereo not drawn) [FLI-19] (Cbz-Pro-Phe-Leu-OtBu; configuration not given here), for which, in series [1], the “localization of NotchΔE-EGFP/NICD-EGFP” value was “accumulation of the reporter at the PM and in perinuclear Golgi-like structures”; the toxicity in cells result is on record as “not acutely toxic in cells”. Further, the “NotchΔE-EGFP level (GFP antibody)” value in series [2] is on record as “accumulation of NotchΔE-EGFP”.
Consider `CC1=C(C(=O)OC2CCCCC2)C(c2ccc([N+](=O)[O-])cc2)C2=C(CC(C)(C)CC2=O)N1` (stereo not drawn) [FLI-06, Cyclohexyl 4-(4′-nitrophenyl)-2,7,7-trimethyl-5-oxo-1,4,5,6,7,8-hexahydroquinoline-3-carboxylate], for which the “budding of COPII vesicles after pretreatment of cells” value in series [3] (100 μM FLI-06 in reaction) was “strongly”. The “budding of COPII vesicles after pretreatment of cells” value in series [3] (no FLI-06 in reaction) is recorded as “slightly inhibited”. Further, the “COPII budding reaction, compound added directly to the assay” value in series [3] (no FLI-06 pretreatment of cells) is given as “did not inhibit the COPII budding reaction”. Further, in series [1], the “localization of NotchΔE-EGFP/NICD-EGFP” value was “reduced nuclear fluorescence and localization in intracellular membranes”; the toxicity in cells entry is given as “not acutely toxic in cells”. Further, the microtubule network entry in series [4] (1.5 ig/ml nocodazole or 10 iM FLI-06) is “does not act on the cytoskeleton”. Moreover, the “actin polymerization and distribution” value in series [4] (2 iM cytochalasin D or 10 iM FLI-06) was “unaffected”. Besides, in series [5], the “glycosylation of Klotho” value is reported as “aberrant glycosylation”; the “mature, complex-glycosylated post-Golgi form of Klotho” value is “strongly reduced”; the “shedded Klothos in the medium” value is recorded as “strong reduction of Klothos in the medium”. Also, the “surface transport of YFP-GPI” value in series [6] is listed as “inhibit surface transport of YFP-GPI”. Also, the “ER-stress (BIP up-regulation, ATF6 luciferase)” value in series [7] was “only very mild ER-stress after 24 h”. In series [2], the NICD-EGFP production result was “decreased NICD-EGFP production” and the “NotchΔE-EGFP level (GFP antibody)” value was “accumulation of NotchΔE-EGFP”. In series [8], the endocytosis of transferrin result is “did not affect endocytosis”.
As to `Cn1c2ccccc2c2c(C(=O)N3CCN(Cc4ccc5c(c4)OCO5)CC3)cn(C3CCCC3)c(=O)c21` [FLI-14], in series [1], the “localization of NotchΔE-EGFP/NICD-EGFP” value was “accumulation of the reporter at the PM and in perinuclear Golgi-like structures”; the toxicity in cells entry is given as “not acutely toxic in cells”. Besides, in series [2], the NICD-EGFP production result was “decreased NICD-EGFP production” and the “NotchΔE-EGFP level (GFP antibody)” value is reported as “accumulation of NotchΔE-EGFP”.
For the molecule `CC(=O)Nc1ccc2nc(NC(=O)CC34CC5CC(CC(C5)C3)C4)sc2c1` [FLI-20], in series [1], the “localization of NotchΔE-EGFP/NICD-EGFP” value was “accumulation of the reporter at the PM and in perinuclear Golgi-like structures”; the toxicity in cells entry was “not acutely toxic in cells”. In series [2], the NICD-EGFP production result is listed as “decreased NICD-EGFP production” and the “NotchΔE-EGFP level (GFP antibody)” value is reported as “accumulation of NotchΔE-EGFP”.
